The supplement of paper PMC10307832

Assays:
Test in all cases: relative viability (nuclei count vs DMSO), 5 days (fraction); higher = more cells survive
LC-2-ad = tested on: LC-2-ad
Summary of the method: (§1)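 Dosing by pin tool came one day after lung cancer cell lines were seeded in 1536-well plates, using either one drug or a fixed anchor-drug dose plus five library-drug doses (not always all listed) in √10 steps. After 5 days, nuclei were counted on 4× images. Relative viability is treated-well nuclei count divided by vehicle-well nuclei count, and values are medians of duplicate plates.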

ChaGo-K-1 = tested on: ChaGo-K-1
Summary of the method: as §1

NCI-H2228 = tested on: NCI-H2228
Summary of the method: as §1

HCC-78 = tested on: HCC-78
Summary of the method: as §1

NCI-H1944 = tested on: NCI-H1944
Summary of the method: as §1

NCI-H2087 = tested on: NCI-H2087
Summary of the method: as §1

LOU-NH91 = tested on: LOU-NH91
Summary of the method: as §1

PC-3 [JPC-3] = tested on: PC-3 [JPC-3]
Summary of the method: as §1

NCI-H3122 = tested on: NCI-H3122
Summary of the method: as §1

NCI-H2170 = tested on: NCI-H2170
Summary of the method: as §1

CAL-12T = tested on: CAL-12T
Summary of the method: as §1

NCI-H1793 = tested on: NCI-H1793
Summary of the method: as §1

RERF-LC-KJ = tested on: RERF-LC-KJ
Summary of the method: as §1

HCC-366 = tested on: HCC-366
Summary of the method: as §1

LU99A = tested on: LU99A
Summary of the method: as §1

NCI-H2405 = tested on: NCI-H2405
Summary of the method: as §1

NCI-H1755 = tested on: NCI-H1755
Summary of the method: as §1

NCI-H460 = tested on: NCI-H460
Summary of the method: as §1

UMC-11 = tested on: UMC-11
Summary of the method: as §1

NCI-H1395 = tested on: NCI-H1395
Summary of the method: as §1

NCI-H1651 = tested on: NCI-H1651
Summary of the method: as §1

SMILES: Nc1ccn([C@@H]2O[C@H](CO)[C@@H](O)[C@@H]2O)c(=O)n1 [Cytarabine] + Nc1nc2[nH]cc(CCc3ccc(C(=O)N[C@@H](CCC(=O)O)C(=O)O)cc3)c2c(=O)[nH]1 [Pemetrexed] (partner 0.2 µM)
- relative viability (LC-2-ad; first compound 0.005 µM): 0.28
- relative viability (LC-2-ad; first compound 0.01581 µM): 0.31
- relative viability (LC-2-ad; first compound 0.05 µM): 0.286
- relative viability (LC-2-ad; first compound 0.1581 µM): 0.268
- relative viability (LC-2-ad; first compound 0.5 µM): 0.265
- relative viability (ChaGo-K-1; first compound 0.005 µM): 0.264
- relative viability (ChaGo-K-1; first compound 0.01581 µM): 0.249
- relative viability (ChaGo-K-1; first compound 0.05 µM): 0.239
- relative viability (ChaGo-K-1; first compound 0.1581 µM): 0.209
- relative viability (ChaGo-K-1; first compound 0.5 µM): 0.192
- relative viability (NCI-H2228; first compound 0.005 µM): 0.32
- relative viability (NCI-H2228; first compound 0.01581 µM): 0.275
- relative viability (NCI-H2228; first compound 0.05 µM): 0.134
- relative viability (NCI-H2228; first compound 0.1581 µM): 0.0993
- relative viability (NCI-H2228; first compound 0.5 µM): 0.133
- relative viability (HCC-78; first compound 0.005 µM): 0.824
- relative viability (HCC-78; first compound 0.01581 µM): 0.918
- relative viability (HCC-78; first compound 0.05 µM): 0.889
- relative viability (HCC-78; first compound 0.1581 µM): 0.936
- relative viability (HCC-78; first compound 0.5 µM): 0.894
- relative viability (NCI-H1944; first compound 0.005 µM): 0.505
- relative viability (NCI-H1944; first compound 0.01581 µM): 0.312
- relative viability (NCI-H1944; first compound 0.05 µM): 0.241
- relative viability (NCI-H1944; first compound 0.1581 µM): 0.14
- relative viability (NCI-H1944; first compound 0.5 µM): 0.116
- relative viability (NCI-H2087; first compound 0.005 µM): 0.631
- relative viability (NCI-H2087; first compound 0.01581 µM): 0.616
- relative viability (NCI-H2087; first compound 0.05 µM): 0.647
- relative viability (NCI-H2087; first compound 0.1581 µM): 0.57
- relative viability (NCI-H2087; first compound 0.5 µM): 0.283
- relative viability (LOU-NH91; first compound 0.005 µM): 0.383
- relative viability (LOU-NH91; first compound 0.01581 µM): 0.395
- relative viability (LOU-NH91; first compound 0.05 µM): 0.379
- relative viability (LOU-NH91; first compound 0.1581 µM): 0.318
- relative viability (LOU-NH91; first compound 0.5 µM): 0.339
- relative viability (PC-3 [JPC-3]; first compound 0.005 µM): 1
- relative viability (PC-3 [JPC-3]; first compound 0.01581 µM): 0.914
- relative viability (PC-3 [JPC-3]; first compound 0.05 µM): 0.616
- relative viability (PC-3 [JPC-3]; first compound 0.1581 µM): 0.557
- relative viability (PC-3 [JPC-3]; first compound 0.5 µM): 0.716
- relative viability (NCI-H3122; first compound 0.005 µM): 0.207
- relative viability (NCI-H3122; first compound 0.01581 µM): 0.196
- relative viability (NCI-H3122; first compound 0.05 µM): 0.227
- relative viability (NCI-H3122; first compound 0.1581 µM): 0.381
- relative viability (NCI-H3122; first compound 0.5 µM): 0.156
- relative viability (NCI-H2170; first compound 0.005 µM): 0.331
- relative viability (NCI-H2170; first compound 0.01581 µM): 0.291
- relative viability (NCI-H2170; first compound 0.05 µM): 0.333
- relative viability (NCI-H2170; first compound 0.1581 µM): 0.205
- relative viability (NCI-H2170; first compound 0.5 µM): 0.183
- relative viability (CAL-12T; first compound 0.005 µM): 0.928
- relative viability (CAL-12T; first compound 0.01581 µM): 1.11
- relative viability (CAL-12T; first compound 0.05 µM): 0.984
- relative viability (CAL-12T; first compound 0.1581 µM): 0.543
- relative viability (CAL-12T; first compound 0.5 µM): 0.249
- relative viability (NCI-H1793; first compound 0.005 µM): 0.902
- relative viability (NCI-H1793; first compound 0.01581 µM): 0.827
- relative viability (NCI-H1793; first compound 0.05 µM): 0.827
- relative viability (NCI-H1793; first compound 0.1581 µM): 0.374
- relative viability (NCI-H1793; first compound 0.5 µM): 0.206
- relative viability (RERF-LC-KJ; first compound 0.005 µM): 0.453
- relative viability (RERF-LC-KJ; first compound 0.01581 µM): 0.502
- relative viability (RERF-LC-KJ; first compound 0.05 µM): 0.381
- relative viability (RERF-LC-KJ; first compound 0.1581 µM): 0.34
- relative viability (RERF-LC-KJ; first compound 0.5 µM): 0.249
- relative viability (HCC-366; first compound 0.005 µM): 0.161
- relative viability (HCC-366; first compound 0.01581 µM): 0.217
- relative viability (HCC-366; first compound 0.05 µM): 0.25
- relative viability (HCC-366; first compound 0.1581 µM): 0.0693
- relative viability (HCC-366; first compound 0.5 µM): 0.062
- relative viability (LU99A; first compound 0.005 µM): 0.22
- relative viability (LU99A; first compound 0.01581 µM): 0.179
- relative viability (LU99A; first compound 0.05 µM): 0.177
- relative viability (LU99A; first compound 0.1581 µM): 0.195
- relative viability (LU99A; first compound 0.5 µM): 0.163
- relative viability (NCI-H2405; first compound 0.005 µM): 1
- relative viability (NCI-H2405; first compound 0.01581 µM): 0.654
- relative viability (NCI-H2405; first compound 0.05 µM): 0.61
- relative viability (NCI-H2405; first compound 0.1581 µM): 0.495
- relative viability (NCI-H2405; first compound 0.5 µM): 0.41
- relative viability (NCI-H1755; first compound 0.005 µM): 0.472
- relative viability (NCI-H1755; first compound 0.01581 µM): 0.453
- relative viability (NCI-H1755; first compound 0.05 µM): 0.381
- relative viability (NCI-H1755; first compound 0.1581 µM): 0.336
- relative viability (NCI-H1755; first compound 0.5 µM): 0.351
- relative viability (NCI-H460; first compound 0.005 µM): 0.0718
- relative viability (NCI-H460; first compound 0.01581 µM): 0.0671
- relative viability (NCI-H460; first compound 0.05 µM): 0.0853
- relative viability (NCI-H460; first compound 0.1581 µM): 0.0459
- relative viability (NCI-H460; first compound 0.5 µM): 0.037
- relative viability (UMC-11; first compound 0.005 µM): 0.551
- relative viability (UMC-11; first compound 0.01581 µM): 0.491
- relative viability (UMC-11; first compound 0.05 µM): 0.428
- relative viability (UMC-11; first compound 0.1581 µM): 0.226
- relative viability (UMC-11; first compound 0.5 µM): 0.195
- relative viability (NCI-H1395; first compound 0.005 µM): 0.798
- relative viability (NCI-H1395; first compound 0.01581 µM): 0.566
- relative viability (NCI-H1395; first compound 0.05 µM): 0.638
- relative viability (NCI-H1395; first compound 0.1581 µM): 0.361
- relative viability (NCI-H1395; first compound 0.5 µM): 0.326
- relative viability (NCI-H1651; first compound 0.005 µM): 0.479
- relative viability (NCI-H1651; first compound 0.01581 µM): 0.569
- relative viability (NCI-H1651; first compound 0.05 µM): 0.223
- relative viability (NCI-H1651; first compound 0.1581 µM): 0.451
- relative viability (NCI-H1651; first compound 0.5 µM): 0.221
